Counter-ions that a name gives are not always drawn. Like-named read-outs stand apart in the source and are kept apart here.
Tested on: lymphocytic leukemia P388
Assay: Lymphocytic leukemia P388 test (intraperitoneal administration)
Assay type: in vivo, DBA/2 mice
Description: The animals used are DBA/2 mice all of one sex, weighing a minimum of 17 g. and all within a 3 gram weight range. There are 5 or 6 animals per test group. The tumor transplant is by intraperitoneal injection of 0.1 ml. of dilute ascitic fluid containing 10^6 cells of lymphocytic leukemia P388. The test compounds are administered intraperitoneally on days one, 5 and 9 (relative to tumor inoculation) at various doses. The animals are weighed and survivors are recorded on a regular basis for 30 days. The median survival time and the ratio of survival time for treated (T)/control (C) animals are calculated.

[1] = 0.39 mg./kg. i.p., days 1, 5 and 9
[2] = 0.78 mg./kg. i.p., days 1, 5 and 9
[3] = 1.56 mg./kg. i.p., days 1, 5 and 9
[4] = 3.1 mg./kg. i.p., days 1, 5 and 9
[5] = 6.2 mg./kg. i.p., days 1, 5 and 9
[6] = 12.5 mg./kg. i.p., days 1, 5 and 9
[7] = Mus musculus, P388, ip, 0.39 mg./kg. i.p., days 1, 5 and 9, efficacy ≥125%, read-out: T/C × 100
[8] = Mus musculus, P388, ip, 0.78 mg./kg. i.p., days 1, 5 and 9, efficacy ≥125%, read-out: T/C × 100
[9] = Mus musculus, P388, ip, 1.56 mg./kg. i.p., days 1, 5 and 9, efficacy ≥125%, read-out: T/C × 100
[10] = Mus musculus, P388, ip, 3.1 mg./kg. i.p., days 1, 5 and 9, efficacy ≥125%, read-out: T/C × 100
[11] = Mus musculus, P388, ip, 6.2 mg./kg. i.p., days 1, 5 and 9, efficacy ≥125%, read-out: T/C × 100
[12] = Mus musculus, P388, ip, 12.5 mg./kg. i.p., days 1, 5 and 9, efficacy ≥125%, read-out: T/C × 100
[13] = 100 mg./kg. i.p., days 1, 5 and 9
[14] = 200 mg./kg. i.p., days 1, 5 and 9
[15] = Mus musculus, P388, ip, 100 mg./kg. i.p., days 1, 5 and 9, efficacy ≥125%, read-out: T/C × 100
[16] = Mus musculus, P388, ip, 200 mg./kg. i.p., days 1, 5 and 9, efficacy ≥125%, read-out: T/C × 100
[17] = 3.12 mg./kg. i.p., days 1, 5 and 9
[18] = 6.25 mg./kg. i.p., days 1, 5 and 9
[19] = 25 mg./kg. i.p., days 1, 5 and 9
[20] = 50 mg./kg. i.p., days 1, 5 and 9
[21] = Mus musculus, P388, ip, 3.12 mg./kg. i.p., days 1, 5 and 9, efficacy ≥125%, read-out: T/C × 100
[22] = Mus musculus, P388, ip, 6.25 mg./kg. i.p., days 1, 5 and 9, efficacy ≥125%, read-out: T/C × 100
[23] = Mus musculus, P388, ip, 50 mg./kg. i.p., days 1, 5 and 9, efficacy ≥125%, read-out: T/C × 100
[24] = Mus musculus, P388, ip, read-out: T/C × 100
[25] = Mus musculus, P388, ip, 25 mg./kg. i.p., days 1, 5 and 9, efficacy ≥125%, read-out: T/C × 100

SMILES	Median Survival Time [2] [days]	Median Survival Time [3] [days]	Median Survival Time [4] [days]	Median Survival Time [5] [days]	Median Survival Time [6] [days]	response vs control in vivo at 0.78 mg/kg [8] [%]	response vs control in vivo at 1.56 mg/kg [9] [%]	response vs control in vivo at 3.1 mg/kg [10] [%]	response vs control in vivo at 6.2 mg/kg [11] [%]	response vs control in vivo at 12.5 mg/kg [12] [%]	Median Survival Time [13] [days]	Median Survival Time [14] [days]	response vs control in vivo at 100 mg/kg [15] [%]	response vs control in vivo at 200 mg/kg [16] [%]	Median Survival Time [18] [days]	Median Survival Time [19] [days]	Median Survival Time [20] [days]	response vs control in vivo at 6.25 mg/kg [22] [%]	response vs control in vivo at 50 mg/kg [23] [%]	response vs control in vivo at 25 mg/kg [25] [%]	also measured
Cl.Cl.NCCNc1ccc(NCCN)c2c1C(=O)c1c(O)ccc(O)c1C2=O [1,4-Bis(2-aminoethylamino)-5,8-dihydroxyanthraquinone dihydrochloride]	24.5	20.0	30.0	15.5	8.0	223	182	273	141	73	–	–	–	–	–	–	–	–	–	–	Median Survival Time (0.19 mg./kg. i.p., days 1, 5 and 9): 23.0 days; Median Survival Time [1]: 25.5 days; response vs control in vivo at 0.19 mg/kg (Mus musculus, P388, ip, 0.19 mg./kg. i.p., days 1, 5 and 9, efficacy ≥125%, read-out: T/C × 100): 209%; response vs control in vivo at 0.39 mg/kg [7]: 232%
O=C1c2c(O)ccc(O)c2C(=O)c2c(NCCN3CCOCC3)ccc(NCCN3CCOCC3)c21 [1,4-Bis(2-morpholinoethylamino)-5,8-dihydroxyanthraquinone]	–	–	–	–	–	–	–	–	–	–	12.0	14.0	126	147	–	–	–	–	–	–	–
O=C1c2c(O)ccc(O)c2C(=O)c2c(NCCN3CC3)ccc(NCCN3CC3)c21 [1,4-Bis[2-(1-aziridino)ethylamino]-5,8-dihydroxyanthraquinone]	14.0	17.0	–	–	20.5	140	170	–	–	205	28.5	–	285	–	18.5	20.0	21.5	185	215	–	Median Survival Time [17]: 19.5 days; response vs control in vivo at 3.12 mg/kg [21]: 195%; response vs control in vivo at 25 mg/kg [24]: 200%
CC(O)CNCCNc1ccc(NCCNCC(C)O)c2c1C(=O)c1c(O)ccc(O)c1C2=O.Cl.Cl (stereo not shown) [1,4-Bis[2-(2-hydroxy-1-propylamino)ethylamino]-5,8-dihydroxyanthraquinone dihydrochloride]	19.0	19.0	22.0	23.0	24.0	190	190	220	230	240	–	–	–	–	–	12.0	–	–	–	120	Median Survival Time [1]: 17.5 days; response vs control in vivo at 0.39 mg/kg [7]: 175%
CNCCNCCNc1ccc(NCCNCCNC)c2c1C(=O)c1c(O)ccc(O)c1C2=O.Cl.Cl.Cl.Cl [1,4-Bis[2-(2-methylaminoethylamino)ethylamino]-5,8-dihydroxyanthraquinone Tetrahydrochloride]	–	13.0	–	–	17.0	–	130	–	–	170	22.0	–	220	–	16.0	19.5	22.0	160	220	195	Median Survival Time (1.12 mg./kg. i.p., days 1, 5 and 9): 13.5 days; response vs control in vivo at 1.12 mg/kg (Mus musculus, P388, ip, 1.12 mg./kg. i.p., days 1, 5 and 9, efficacy ≥125%, read-out: T/C × 100): 135%
Cl.Cl.O=C1c2c(O)ccc(O)c2C(=O)c2c(NCCNCCCO)ccc(NCCNCCCO)c21 [1,4-Bis[2-(3-hydroxy-1-propylamino)ethylamino]-5,8-dihydroxyanthraquinone dihydrochloride]	21.5	22.0	25.0	–	> 30.0	195	–	227	–	> 273	–	–	–	–	26.0	8.5	–	236	–	77	response vs control in vivo at 1.56 mg/kg [24]: 200%
O=C1c2c(O)ccc(O)c2C(=O)c2c(NCCNCCN3CCOCC3)ccc(NCCNCCN3CCOCC3)c21 [1,4-Bis[2-[2-(1-morpholino)ethylamino]ethylamino]-5,8-dihydroxyanthraquinone tetrahydrochloride]	–	–	13.0	14.0	15.0	–	–	130	140	150	20.0	9.5	–	95	–	19.5	18.5	–	185	195	response vs control in vivo at 100 mg/kg [24]: 200%
Cl.Cl.O=C1c2c(O)ccc(O)c2C(=O)c2c(NCCN(CCO)CCO)ccc(NCCN(CCO)CCO)c21 [1,4-Bis[2-[di(β-hydroxyethyl)amino]ethylamino]-5,8-dihydroxyanthraquinone dihydrochloride]	14.5	16.0	19.0	18.5	18.5	161	178	211	206	206	22.0	> 30.0	244	> 333	–	21.5	20.5	–	228	239	–
Cl.Cl.O=C1c2c(O)ccc(O)c2C(=O)c2c(NCCCNCCO)ccc(NCCCNCCO)c21 [1,4-Bis[3-(2-hydroxyethylamino)-1-propylamino]-5,8-dihydroxyanthraquinone dihydrochloride]	15.0	16.0	–	–	22.5	136	145	–	–	205	12.5	–	114	–	19.0	26.5	32.0	173	291	241	Median Survival Time [17]: 19.0 days; response vs control in vivo at 3.12 mg/kg [21]: 173%
O=C1C2=C(NCCN3CCOCC3)CCC(NCCN3CCOCC3)=C2C(=O)c2c(O)ccc(O)c21 [Leuco-1,4-bis(2-morpholinoethylamino)-5,8-dihydroxyanthraquinone]	–	–	–	–	–	–	–	–	–	–	12.0	13.0	126	137	–	12.0	11.0	–	116	126	–
